Measured values reported in patent publication US8524747B2, “Pharmaceutical compositions” (Keio University, priority 2008, dated 2013).

Legend:
iNOS = iNOS expression in macrophage activation (Western blotting); type: cell-based; details: RAW264.7 cells, LPS
Protocol: RAW264.7 cells were activated under the same conditions as in (4), the cells were recovered and proteins were extracted from the cells by a routine method. Western blotting was conducted, using an anti-iNOS antibody (Santa Cruz Biotechnology) and an anti-α-tubulin antibody (Sigma Aldrich Japan) at the dilution ratio of 1/3000.

IL-6 = IL-6 production by macrophage activation (ELISA); type: cell-based; details: RAW264.7 cells, LPS
Protocol: RAW264.7 cells were activated under the same conditions as in (4), the cells were recovered, proteins were extracted from the cells by a routine method. An ELISA was conducted using 96-well polystyrene microplates onto which the anti-IL-6 antibody had been immobilized. […] The detected concentrations of IL-6 per 10^6 cells were plotted in FIG. 9.

NO production = NO production by LPS-activated macrophages (Griess reaction); type: cell-based; details: RAW264.7 cells
Protocol: After RAW264.7 cells were cultured under the same conditions as in (2) with the media supplemented with DTCM glutarimide-C12 at concentrations (0, 0.1, 0.3, 1.0 and 3.0 μg/mL) for 2 hours, 3.0 μg/mL of LPS was added to the media and the cells were further cultured for 20 hours. Then, NO production amounts were measured by Griess reaction and plotted against the respective DTCM glutarimide-C12 concentrations (the bar graph in FIG. 4).

COX-2 = COX-2 expression in macrophage activation (Western blotting); type: cell-based; details: RAW264.7 cells, LPS
Protocol: RAW264.7 cells were activated under the same conditions as in (4), the cells were recovered, proteins were extracted from the cells in a routine method, and Western blotting was conducted using an anti-COX-2 antibody (BD Bioscience) and an anti-α-tubulin antibody (Sigma Aldrich Japan) at the dilution ratio of 1/3000.

NF-κB = experiment: DNA binding ability of NF-κB (gel shift assay); type: cell-based; details: RAW264.7 cells
Protocol: Next, under the same conditions as in (2) above, RAW264.7 cells were cultured with the media supplemented with DTCM glutarimide-C12 at concentrations (0, 0.1, 0.3, 1.0 and 3.0 μg/mL) for 2 hours, to which 3.0 μg/mL of LPS was added, and the cells were further cultured for 30 minutes. Then, nuclear extracts were prepared by a routine method, and a gel shift assay was conducted with using 3 μL of a ^32P-labeled probe.
The probe was prepared as follows. First, 4 μL of 1.75 μmol/mL oligonucleotide (Promega Inc.) (5′-[…]-3′; SEQ ID N0.1), 4 μL of 10×T4 PNK buffer (Takara) and 10 μL of nucleotide free water were mixed, to which 2 μL of [γ-^32P]-ATP (Amarsham Corp.) was added, and incubated at 37° C. for 10 minutes. The reaction was then terminated by addition of 80 μL of TE buffer (10 mM Tris-HCl:1 mM EDTA=1:1). 100 μL of the reaction solution was loaded onto a Nick Column (Amersham Corp.) which had been prepared by removing the filled TE buffer and washing with distilled water, 400 μL of distilled water was loaded, and the eluate from the column was recovered in a 1.5 mL Eppendorf tube. Additional 400 μL of distilled water was loaded, and the fraction eluted again from the column was recovered in the 1.5 mL Eppendorf tube. The elute thus obtained was used as the labeled DNA probe. […]

RAW264.7 cells [1] = experiment: Cytotoxicity on RAW264.7 cells: cell survival rate (trypan blue) and total cell number; type: cell-based; details: after 48 hours
Protocol: In this example, cytotoxicity of DTCM glutarimide on RAW264.7 cells was evaluated, based on cell survival rate and cell growth rate.
The RAW264.7 cells were seeded on plastic dishes at 1×10^4 cells/ml in DMEM medium containing 10% FBS, to which DTCM glutarimide-C12 was added at the concentration of 0, 0.1, 0.3, 1.0, 3.0 or 10.0 μg/mL to the media. After 24 hours or 48 hours of culture, numbers of total cells were counted using hemacytometer, and numbers of living cells were counted using trypan blue dye exclusion assay.

[2] = test system: murine bone marrow-derived macrophages; experiment: Toxicity on murine bone marrow-derived macrophages (trypan blue dye exclusion); type: cell-based, mouse
Protocol: An 8 week-old ICR mouse (male, purchased from Charles River) sacrificed by cervical dislocation was dissected under sterile conditions to isolate femora and […] from both legs. Medullary cavities were washed with α-MEM several times using a 21G needle attached to a 1 mL syringe. The fluid (α-MEM) after washing was filtrated through a nylon mesh (330 mesh) to remove unnecessary cells, and myelocytes were isolated. The myelocyte suspension in α-MEM thus obtained was diluted to 1.25 to 3.75×10^6 cell/mL. To 80 mL of the myelocyte suspension, 80 μL of hM-CSF (Wako Pure Chemical) at 10 μg/mL prepared with PBS containing 0.1% BSA was added (final concentration 10 ng/mL). The cells thus prepared were seeded onto 24-well plates (Corning Inc.) by 500 μL to 1 mL per well, and cultured at 37° C. under 5% CO2 for 2 days. Then, unattached cells were washed away with α-MEM, fresh α-MEM containing 10 ng/mL of hM-CSF was added, and the attached cells thus obtained were used as the murine bone marrow-derived macrophages.
The murine bone marrow-derived macrophages thus prepared were seeded onto 24-well plates (Corning Inc.) by 1 mL each (1.25 to 3.75×10^6 cell/mL). To each of the wells, DTCM glutarimide-C12 at respective concentrations of 1.0, 3.0, 10.0 and 30.0 μg/mL was added, and all the experimental groups were cultured at 37° C. under 5% CO2. The control group was cultured under the same condition but without addition of DTCM glutarimide-C12.
The cells in the experimental groups were detached using a cell scraper and dissolved in α-MEM at 24 hours, 48 hours and 72 hours after the addition of DTCM glutarimide-C12. Then 1 mL of the cell suspensions were recovered in fresh Eppendorf tubes. […] 10 μL of the cell suspensions was put onto a hemacytometer (Erma Inc.) and total cells and dead cells were counted under a microscope at 100× magnification. In hemacytometric counting, approximately 100 cells were counted per one visual field, and the cell survival rates obtained in four visual fields were averaged. The cell survival rate (%) was calculated according to the following formula. […]

F9 cells = experiment: Survival rate and growth of F9 cancer cells; type: cell-based, murine
Protocol: F9 cells derived from murine embryonic tumor cells (purchased from RIKEN Tsukuba Institute BioResource Center, Cell Engineering Division) were plated onto plastic dishes at 1×10^4 cell/mL in DMEM medium containing 15% FBS. DTCM glutarimide-C12 was then added at the concentration of 0, 0.1, 0.3, 1.0, 3.0, 10.0 or 30.0 μg/mL in the culture media, and were cultured for 24, 48 or 72 hours. By following the same method as described in “Measurement of Cell Survival Rate by Trypan Blue Staining” in Example (10), the survival rates of cells were measured. Also, suspensions of the cultured cells were similarly prepared and the numbers of cells in the suspensions were counted by Coulter Counter (Beckman Coulter Inc.) to evaluate cell growth.

[3] = test system: murine bone marrow-derived macrophages; experiment: RANKL-induced osteoclast differentiation of murine bone marrow-derived macrophages (TRAP staining); type: cell-based, mouse; details: 0.3, 1.0 and 3.0 μg/mL, RANKL 100 ng/mL, 5 days
Protocol: The primary murine bone marrow-derived macrophages prepared in Example (10) were plated onto 24-well plates (Corning Inc.) by 500 μL each (1.25 to 3.75×10^6 cell/mL). Then 5 μL of DTCM glutarimide-C12 was added to each of the wells to the final concentrations of 0, 0.3, 1.0 and 3.0 μg/mL. All the experimental groups of plates were cultured at 37° C. under 5% CO2 for 2 hours. hRANKL (Wako Pure Chemical) at 10 μg/mL prepared in PBS containing 0.1% BSA was then added by 5 μL each (final concentration 100 ng/mL), and culture was continued. RANKL has been known as a factor to induce osteoclasts differentiation of macrophages etc. (Kobayashi et al. Crit. Rev Eukaryot Gene Expr. 19(1), 61-72, 2009). The control group of plates was cultured under the same condition but without RANKL and DTCM glutarimide.
After 5 days of culture, the media were removed, and the cells were washed by PBS. 250 μL each of 3.5% paraformaldehyde was added to the wells to fix the cells for 5 minutes, and the fixative was washed away with PBS. […] Following an addition of 250 μL of PBS, the plates were observed under a microscope and the number of mature osteoclasts was counted in the entire visual field by regarding TRAP-positive cell having three or more fused nuclei as the mature osteoclast as it is known to be TRAP-positive.

RAW264.7 cells [4] = experiment: Living cell count by MTT method in LPS-stimulated cells; type: cell-based; details: all concentrations 0.1-3.0 μg/mL, 20 hours
RAW264.7 cells [5] = experiment: Inhibition of synthesis of DNA, RNA and protein (3H-thymidine, uridine, leucine incorporation); type: cell-based; details: concentrations up to 10.0 μg/mL, 6 hours + 1 hour label
Protocol: In this example, the cytotoxicity of DTCM glutarimide on RAW264.7 cells was evaluated, based on the inhibition of synthesis of DNA, RNA and protein.
After RAW264.7 cells were cultured under the same conditions as in (2) with the media supplemented with DTCM glutarimide-C12 at concentrations (0, 0.1, 0.3, 1.0, 3.0 and 10.0 μg/mL) for 6 hours, ^3H-labeled 0.1% thymidine, 0.1% uridine and 0.1% leucine were added to the media and the cells were further cultured for 1 hour. The cells were recovered and radioactivity of TCA-insoluble fractions was measured by using a liquid scintillation counter. The counts obtained at the DTCM glutarimide-C12 concentrations were normalized by setting to 100 the count obtained without addition of DTCM glutarimide-C12 in a control experiment and relatively plotted in the graph shown in FIG. 3.

[6] = 10 μg/mL, positive control, LPS
[7] = 0.1-3.0 μg/mL, 2 hours pretreatment, LPS 3.0 μg/mL, 20 hours

O=C(NC1=CC(=O)[C@H]2O[C@H]2[C@H]1O)c1ccccc1O [(−)-DHMEQ, reference compound]
iNOS expression (iNOS; 10 μg/mL, control): iNOS expression is suppressed | IL-6 production (IL-6; 10 μg/mL, positive control): IL-6 production is suppressed | NO production (NO production; [6]): NO expression is suppressed | COX-2 expression (COX-2; 10 μg/mL, positive control): COX-2 expression is suppressed | activity of NF-κB (DNA binding) (NF-κB; [6]): the activity of NF-κB is suppressed

CCCCCCSC(=O)CC1CC(=O)NC(=O)C1 [DTCM glutarimide-C6]
NO production (NO production; [7]): suppresses NO production | NO production (NO production; 0.1-3.0 μg/mL, 2 hours pretreatment, LPS 3.0 μg/mL, 20 hours, listed as DTCM glutarimide-C16): almost the same results

CCCCCCCCCCCCSC(=O)CC1CC(=O)NC(=O)C1 [DTCM glutarimide-C12]
iNOS expression (iNOS; 0.1-3.0 μg/mL): prominently suppressed this iNOS expression in a concentration-dependent manner | total cell number (cell growth) (RAW264.7 cells [1]; concentrations up to 1.0 μg/mL): no suppression of cell growth was detected | cell survival rate (living cell number/total cell number) (RAW264.7 cells [1]; concentrations up to 3.0 μg/mL): no cell killing effect was detected | IL-6 production (IL-6; concentrations below 3.0 μg/mL): did not affect this IL-6 production | survival rate ([2]; 3.0 μL groups, regardless of culture time (24, 48, 72 hours)): more than 80% | survival rate ([2]; 10.0 and 30.0 μg/mL groups, regardless of culture time): reduced | toxicity on murine myelocyte-derived macrophages ([2]; concentrations up to 3.0 μL): does not exhibit toxicity | NO production (NO production; [7]): significantly suppressed this NO production in a concentration-dependent manner | cell survival rate of F9 cells (F9 cells; 0.1-30.0 μg/mL, 24, 48 or 72 hours, depending on concentration): significantly reduced | cell growth of F9 cells (F9 cells; 0.1-30.0 μg/mL, 24-72 hours, versus group without addition): suppressed | cell survival rate of F9 cells, 72-hour versus 24-hour and 48-hour culturing (F9 cells; 10 or 30 μg/mL): significantly reduced cell survival rate | number of osteoclasts [3]: significantly reduced | COX-2 expression (COX-2; 0.1-3.0 μg/mL): prominently suppressed this COX-2 expression in a concentration-dependent manner | numbers of living cells (MTT), cell growth (RAW264.7 cells [4]): did not affect the cell growth | inhibition of synthesis of DNA, RNA and protein (RAW264.7 cells [5]): no significant inhibitory activity | DNA binding ability of NF-κB (NF-κB; concentrations below 3.0 μg/mL, LPS 30 minutes): did not suppress the DNA binding ability of NF-κB
